Experiment [1] deals with HepG2. In words: Anticancer activity against human HepG2 cell assessed as cell growth inhibition. Type of experiment: functional, cell-based.
The test system of experiment [2] is PC-3. Kind of experiment: Anticancer activity against human PC-3 cell assessed as cell growth inhibition. Type of experiment: functional, cell-based.
Experiment [3] has as its system HCT-116. In words: Anticancer activity against human HCT-116 cell assessed as cell growth inhibition. Type of experiment: functional, cell-based.
The subject of experiment [4] is PC-3. Kind of experiment: Potency index, ratio of cisplatin IC50 to test compound IC50 for anticancer activity against human PC-3 cells. Type of experiment: functional.
Experiment [5] has as its system PC-3. In words: Anticancer activity against human PC-3 cells assessed as cell growth inhibition measured after 48 hrs by MTT assay. The class given is functional, cell-based. The settings on record: PC-3, 48 h. For orientation: Tetrazolium assays rely on reduction of a dye to a coloured formazan, in cell work by metabolically active cells.
In experiment [6] the test system is HepG2. Kind of experiment: Potency index, ratio of cisplatin IC50 to test compound IC50 for anticancer activity against human HepG2 cells. Type of experiment: functional.
Experiment [7] has as its system HCT-116. Kind of experiment: Potency index, ratio of cisplatin IC50 to test compound IC50 for anticancer activity against human HCT-116 cells. The class given is functional.
Experiment [8] has as its system HCT-116. In words: Anticancer activity against human HCT-116 cells assessed as cell growth inhibition measured after 48 hrs by MTT assay. The class given is functional, cell-based. The note with it: HCT-116, 48 h.
The subject of experiment [9] is HepG2. In words: Anticancer activity against human HepG2 cells assessed as cell growth inhibition measured after 48 hrs by MTT assay. Type of experiment: functional, cell-based. The note with it: HepG2, 48 h.
Experiment [10] concerns MCF7. Kind of experiment: Anticancer activity against human MCF7 cells assessed as cell growth inhibition measured after 48 hrs by WST-1 assay. Type of experiment: functional, cell-based. The settings on record: MCF7, 48 h.
The next experiment relates to K562. In words: Anticancer activity against human K562 cells assessed as cell growth inhibition measured after 48 hrs by WST-1 assay. Type of experiment: functional, cell-based. The settings on record: K562, 48 h.
A further experiment relates to Huh-7. Kind of experiment: Anticancer activity against human Huh-7 cells assessed as cell growth inhibition measured after 24 hrs by SRB assay. Type of experiment: functional, cell-based. The settings on record: Huh-7, 24 h. (In general: In SRB staining, fixed cells bind dye roughly in proportion to their protein.)
For another experiment, the system named is Mahlavu. Kind of experiment: Anticancer activity against human Mahlavu cells assessed as cell growth inhibition measured after 24 hrs by SRB assay. The class given is functional, cell-based.
Experiment [11] has as its system MCF7. In words: Anticancer activity against human MCF7 cells assessed as cell growth inhibition measured after 24 hrs by SRB assay. The class given is functional, cell-based. The note with it: MCF7, 24 h.
Experiment [12] deals with HCT-116. In words: Anticancer activity against human HCT-116 cells assessed as cell growth inhibition measured after 24 hrs by SRB assay. Type of experiment: functional, cell-based. The note with it: HCT-116, 24 h.
Experiment [13] concerns MDA-MB-435. Kind of experiment: Anticancer activity against human MDA-MB-435 cells assessed as cell growth inhibition by SRB assay. The class given is functional, cell-based.
Experiment [14] relates to MCF7. In words: Anticancer activity against human MCF7 cells assessed as cell growth inhibition by SRB assay. The class given is functional, cell-based.
The test system of experiment [15] is MDA-MB-435. In words: Growth inhibition of human MDA-MB-435 cells assessed as cell growth inhibition by SRB assay. Type of experiment: functional.

Broadly, the IC50 is the concentration that gives 50% inhibition. On to `Cc1ccc([C@@H]2[C@@H](C(=O)c3c[nH]c4ccccc34)[C@]3(C(=O)Nc4ccccc43)N3CSC[C@@H]23)cc1`, for which the half-inhibitory concentration (IC50) with HepG2 [1] was 5.5 µM; in the experiment on PC-3 [2] it was 6 µM; with HCT-116 [3], 9 µM.
Turning to `O=C(c1c[nH]c2ccccc12)[C@@H]1[C@@H](c2ccc(Br)cc2)[C@@H]2CSCN2[C@@]12C(=O)Nc1ccccc12`, the “Ratio IC50” value in the experiment on PC-3 [4] was more than 3. Besides, the IC50 in the experiment with HepG2 [1] was determined as 5.5 µM; with PC-3 [2], 7 µM.
`O=C(/C=C/c1ccc(Cl)cc1Cl)[C@H]1[C@H](c2ccc(Cl)cc2Cl)[C@H]2CSCN2[C@]12C(=O)Nc1ccccc12`: the “Ratio IC50” value with PC-3 [4] stood at 1.8; in the experiment on HepG2 [6], 2; with HCT-116 [7] it was 4. Besides, the IC50 was not below 2.7 µM in the experiment with PC-3 [5], 2 µM in the experiment with HCT-116 [8] and 1 µM in the experiment with HepG2 [9].
In the case of `O=C1/C(=C/c2cccc(F)c2)CCC[C@]12[C@@H](c1cccc(F)c1)[C@@H]1CSCN1[C@]21C(=O)Nc2ccccc21`, the IC50 amounted to 15.3 µM in the experiment on MCF7 [10] and 15.7 µM with K562.
In the case of `O=C(c1c[nH]c2ccccc12)[C@@H]1[C@@H](c2cccc(C(F)(F)F)c2)[C@@H]2CSCN2[C@@]12C(=O)Nc1ccccc12`, the IC50 with HepG2 [1] came out at 5.5 µM; with HCT-116 [3], 7 µM.
With `O=C(/C=C/c1ccc(Cl)cc1)[C@H]1[C@H](c2ccc(Cl)cc2)[C@H]2CSCN2[C@]12C(=O)Nc1ccccc12`, the “Ratio IC50” value was 1.8 in the experiment on PC-3 [4], 2 in the experiment with HepG2 [6] and 4 with HCT-116 [7]. For the same compound, the IC50 was not below 2.7 µM in the experiment with PC-3 [5], 2.5 µM in the experiment with HCT-116 [8] and 1 µM in the experiment on HepG2 [9].
On to `O=C(c1c[nH]c2ccccc12)[C@@H]1[C@@H](c2cccc(Br)c2)[C@@H]2CSCN2[C@@]12C(=O)Nc1ccccc12`, for which the “Ratio IC50” value with PC-3 [4] was more than 2.9. The IC50 is 5.5 µM in the experiment with HepG2 [1], 8 µM with PC-3 [2] and 9 µM in the experiment on HCT-116 [3].
For `CC(C)C[C@@H]1N2[C@H](c3ccccc3)[C@H](c3ccccc3)OC(=O)[C@H]2[C@H](c2ccccc2)[C@@]12C(=O)Nc1ccccc12`, the IC50 is 8.2 µM in the experiment with Huh-7, 14.9 µM in the experiment with Mahlavu, 4.8 µM with MCF7 [11] and 3.9 µM in the experiment on HCT-116 [12].
One may read the GI50 as the concentration that inhibits growth by half. `N#CC1=C(N)OC2=C(C(=O)CO2)C12C(=O)Nc1ccc(Cl)cc12` (stereo unspecified): the IC50 was not below 3.6 µM in the experiment with MDA-MB-435 [13] and not below 53 µM in the experiment on MCF7 [14]. Moreover, the GI50 with MDA-MB-435 [15] came out at 2.1 µM.
Turning to `N#CC1=C(N)OC2=C(C(=O)CO2)C12C(=O)Nc1ccc(Br)cc12` (stereo unspecified), the IC50 was not below 3.6 µM in the experiment on MDA-MB-435 [13] and not below 53 µM with MCF7 [14]. In addition, the GI50 with MDA-MB-435 [15] came out at 1.8 µM.
Take `N#CC1=C(N)OC2=C(C(=O)CO2)C12C(=O)Nc1ccccc12` (stereo unspecified): the IC50 with MDA-MB-435 [13] was not below 3.6 µM; with MCF7 [14], not below 53 µM. For the same compound, the GI50 in the experiment on MDA-MB-435 [15] was 29.9 µM.
In the case of `O=C(/C=C/c1cccc([N+](=O)[O-])c1)[C@H]1[C@H](c2cccc([N+](=O)[O-])c2)[C@H]2CSCN2C12C(=O)Nc1ccccc12` (stereo partly specified), the “Ratio IC50” value with PC-3 [4] was determined as 1.8; with HepG2 [6], 2; in the experiment with HCT-116 [7] it was 4. Moreover, the half-inhibitory concentration (IC50) in the experiment with PC-3 [5] is not below 2.7 µM; with HCT-116 [8], 2.5 µM; with HepG2 [9], 1 µM.
Consider `O=C(c1c[nH]c2ccccc12)[C@@H]1[C@@H](c2cccc(F)c2)[C@@H]2CSCN2[C@@]12C(=O)Nc1ccccc12`, for which the “Ratio IC50” value in the experiment on PC-3 [4] is on record as more than 2.9. Moreover, the values for the IC50 in the experiment with HepG2 [1], with PC-3 [2] and in the experiment with HCT-116 [3] were 5.5 µM, 8 µM and 9 µM, respectively.
As to `N#CC1=C(N)OC2=C(C(=O)CO2)C12C(=O)Nc1ccc(I)cc12` (stereo unspecified), the concentration for half-maximal inhibition (IC50) in the experiment on MDA-MB-435 [13] is not below 3.6 µM; in the experiment on MCF7 [14], not below 53 µM. The GI50 in the experiment on MDA-MB-435 [15] was 27.3 µM.
For the compound `CC(C)C[C@@H]1N2[C@H](c3ccccc3)[C@H](c3ccccc3)OC(=O)[C@H]2[C@H](c2ccccc2Cl)[C@@]12C(=O)Nc1ccccc12`, the IC50 in the experiment on Huh-7 was determined as 36.6 µM; in the experiment with Mahlavu it was 26.3 µM; with MCF7 [11] it was 11.2 µM; with HCT-116 [12] it was 10.5 µM.

The record behind these values is ChEMBL document CHEMBL5360530, “Structure activity relationship (SAR) and anticancer activity of pyrrolidine derivatives: Recent developments and future prospects (A review)” (Eur J Med Chem, 2023).
